Where a name gives a salt, the structure may show the parent alone.
Molecular target: T1, rat mGluR5 (Rattus norvegicus, UniProt P31424)
T1 construct: expressed in transfected cells
Experiment: mGluR5 assay on HEK-expressing rat mGluR5 (fluorescent cell based Ca2+ mobilization assay)
Conditions: HEK-293 cells stably expressing rat mGluR5; no co-addition of glutamate; mean of at least three independent experiments in duplicate; read-out: Ca++ Flux (mean EC50)
Method: mGluR5 Assay on HEK-Expressing Rat mGluR5
Positive functional expression of HEK-293 cells stably expressing rat mGluR5 receptor was determined by measuring intracellular Ca^2+ changes using a Fluorometric Imaging Plate Reader (FLIPR, Molecular Devices, Sunnyvale, Calif.) in response to glutamate or selective known mGluR5 agonists and antagonists. Rat mGluR5 RT-PCR products in HEK-293 cells were sequenced and found 100% identical to rat mGluR5 Genbank reference sequence (NM_017012). HEK-293 cells expressing rmGluR5 were maintained in media containing DMEM, dialyzed Fetal Bovine Serum (10%), Glutamax™ (2 mM), Penicillin (100 units/ml), Streptomycin (100 μg/ml), Geneticin (100 μg/ml) and Hygromycin-B (40 μg/ml) at 37° C./5% CO2.
After one day of incubation, cells were washed with assay buffer containing: 142 mM NaCl, 6 mM KCl, 1 mM […], 1 mM CaCl2, 20 mM HEPES, 1 g/L glucose, 0.125 mM sulfinpyrazone, pH 7.4. After 60 min of loading with 4 uM Fluo-4 (TefLabs, Austin, Tex.), the cells were washed three times with 50 μl of PBS Buffer and resuspended in 45 μl of assay Buffer. The plates were then transferred to a Fluorometric Imaging Plate Reader (FLIPR, Molecular Devices, Sunnyvale, Calif.) for the assessment of intracellular calcium flux. After monitoring the baseline fluorescence for 10 seconds, increasing concentrations of representative compound (from 0.01 to 60 μM) of the present invention diluted in Assay Buffer (15 μl of 4× dilutions) was added to the cell. The final DMSO concentration in the assay was 0.3%. In each experiment, fluorescence was then monitored as a function of time for 3 minutes and the data analyzed using Microsoft Excel and GraphPad Prism. Each data point was also measured two times.
Under these experimental conditions, this HEK-rat mGluR5 cell line is able to directly detect positive allosteric modulators without the need of co-addition of glutamate or mGluR5 agonist.
The concentration-response curves of representative compounds of the present invention were generated using the Prism GraphPad software (Graph Pad Inc, San Diego, USA). The curves were fitted to a four-parameter logistic equation:
(Y=Bottom+(Top−Bottom)/(1+10̂((Log EC50−X)*Hill Slope)
allowing determination of EC50 values.
The Table 1 below represents the mean EC50 obtained from at least three independent experiments of selected molecules performed in duplicate.

T1 sequence (P31424 21-1171 isoform P31424-2 limits assumed): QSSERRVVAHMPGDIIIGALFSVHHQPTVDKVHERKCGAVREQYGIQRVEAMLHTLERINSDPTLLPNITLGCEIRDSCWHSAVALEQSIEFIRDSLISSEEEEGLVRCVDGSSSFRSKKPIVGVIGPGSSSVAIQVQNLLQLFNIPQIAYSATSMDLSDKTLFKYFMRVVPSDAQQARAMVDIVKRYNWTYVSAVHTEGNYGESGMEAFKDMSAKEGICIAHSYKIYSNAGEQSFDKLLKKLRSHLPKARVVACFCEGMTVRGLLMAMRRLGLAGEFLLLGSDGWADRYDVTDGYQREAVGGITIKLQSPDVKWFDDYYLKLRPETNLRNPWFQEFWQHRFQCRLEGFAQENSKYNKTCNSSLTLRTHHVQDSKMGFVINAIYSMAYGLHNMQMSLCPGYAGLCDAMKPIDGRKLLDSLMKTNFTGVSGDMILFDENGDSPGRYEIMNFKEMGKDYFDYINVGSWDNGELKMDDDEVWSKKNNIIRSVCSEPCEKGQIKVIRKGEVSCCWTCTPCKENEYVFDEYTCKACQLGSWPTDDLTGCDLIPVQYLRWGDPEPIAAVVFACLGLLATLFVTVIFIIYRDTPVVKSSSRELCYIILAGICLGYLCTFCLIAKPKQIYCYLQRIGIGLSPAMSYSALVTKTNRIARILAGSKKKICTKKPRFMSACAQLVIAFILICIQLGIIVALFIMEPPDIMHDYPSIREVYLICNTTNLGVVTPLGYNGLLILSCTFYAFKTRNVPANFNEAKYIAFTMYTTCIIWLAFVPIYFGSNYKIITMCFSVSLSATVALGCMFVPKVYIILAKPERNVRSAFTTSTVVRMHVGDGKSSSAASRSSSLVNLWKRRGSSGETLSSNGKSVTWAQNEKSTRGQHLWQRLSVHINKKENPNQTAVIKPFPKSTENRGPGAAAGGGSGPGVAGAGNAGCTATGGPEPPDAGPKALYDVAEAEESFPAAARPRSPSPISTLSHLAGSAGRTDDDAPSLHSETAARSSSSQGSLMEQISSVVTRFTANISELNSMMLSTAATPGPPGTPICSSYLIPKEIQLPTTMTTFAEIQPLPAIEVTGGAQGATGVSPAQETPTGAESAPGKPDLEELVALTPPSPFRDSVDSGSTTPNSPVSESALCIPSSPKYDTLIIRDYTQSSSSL

EC50	Structure (SMILES)
1 to 10 µM	CCc1ccccc1C(=O)N1CCC[C@H](c2nc(-c3ccc(F)cc3)no2)C1 [Example 20, (2-Ethyl-phenyl)-{3-[3-(4-fluoro-phenyl)-[1,2,4]oxadiazol-5-yl]-piperidin-1-yl}-methanone]
1 to 10 µM	Cc1sccc1C(=O)N1CCC[C@H](c2nc(-c3ccc(F)cc3)no2)C1 [Example 36, {(S)-3-[3-(4-Fluoro-phenyl)-[1,2,4]oxadiazol-5-yl]-piperidin-1-yl}-(2-methyl-thiophen-3-yl)-methanone]
1 to 10 µM	O=C(c1ccc(F)cc1)N1CCC[C@H](c2nc(-c3ccco3)no2)C1 [Example 35, (4-Fluoro-phenyl)-[(S)-3-(3-furan-2-yl-[1,2,4]oxadiazol-5-yl)-piperidin-1-yl]-methanone]
1 to 10 µM	Cc1oncc1C(=O)N1CCC[C@H](c2nc(-c3ccc(F)cc3F)no2)C1 [Example 65, {(S)-3-[3-(2,4-Difluoro-phenyl)-[1,2,4]oxadiazol-5-yl]-piperidin-1-yl}-(5-methyl-isoxazol-4-yl)-methanone]
1 to 10 µM	O=C(c1ccccn1)N1CCC[C@H](c2nc(-c3ccc(F)cc3)no2)C1 [Example 15, {(S)-3-[3-(4-Fluoro-phenyl)-[1,2,4]oxadiazol-5-yl]-piperidin-1-yl}-pyridin-2-yl-methanone hydrochloride]
1 to 10 µM	O=C(c1ccoc1)N1CCC[C@H](c2nc(-c3ccc(F)cc3)no2)C1 [Example 22, {(S)-3-[3-(4-Fluoro-phenyl)-[1,2,4]oxadiazol-5-yl]-piperidin-1-yl}-furan-3-yl-methanone]
1 to 10 µM	Cc1cc(F)ccc1C(=O)N1CCC[C@H](c2nc(-c3ccccc3F)no2)C1 [Example 71, (4-Fluoro-2-methyl-phenyl)-{(S)-3-[3-(2-fluoro-phenyl)-[1,2,4]oxadiazol-5-yl]-piperidin-1-yl}-methanone]
> 10 µM	CNc1cc(F)ccc1C(=O)N1CCC[C@H](c2nc(-c3ccc(F)cc3)no2)C1 [Example 42, (4-Fluoro-2-methylamino-phenyl)-{(S)-3-[3-(4-fluoro-phenyl)-[1,2,4]oxadiazol-5-yl]-piperidin-1-yl}-methanone]
< 1 µM	O=C(c1ccc(F)cc1F)N1CCC[C@H](c2nc(-c3ccccc3)no2)C1 [Example 59, (2,4-Difluoro-phenyl)-[(S)-3-(3-phenyl-[1,2,4]oxadiazol-5-yl)-piperidin-1-yl]-methanone]
< 1 µM	Cc1oncc1C(=O)N1CCC[C@H](c2nc(-c3ccccc3)no2)C1 [Example 56, (5-Methyl-isoxazol-4-yl)-[(S)-3-(3-phenyl-[1,2,4]oxadiazol-5-yl)-piperidin-1-yl]-methanone]
1 to 10 µM	Cc1nocc1C(=O)N1CCC[C@H](c2nc(-c3ccc(F)cc3)no2)C1 [Example 4, (S)-{3-[3-(4-Fluoro-phenyl)-[1,2,4]oxadiazol-5-yl]-piperidin-1-yl}-(3-methyl-isoxazol-4-yl)-methanone]
1 to 10 µM	Cc1cc(F)ccc1C(=O)N1CCC[C@H](c2nc(-c3ccccc3)no2)C1 [Example 63, (4-Fluoro-2-methyl-phenyl)-[(S)-3-(3-phenyl-[1,2,4]oxadiazol-5-yl)-piperidin-1-yl]-methanone]
> 10 µM	O=C(c1c[nH]nc1C(F)(F)F)N1CCC[C@H](c2nc(-c3ccc(F)cc3)no2)C1 [Example 41, {(S)-3-[3-(4-Fluoro-phenyl)-[1,2,4]oxadiazol-5-yl]-piperidin-1-yl}-(3-trifluoromethyl-1H-pyrazol-4-yl)-methanone]
1 to 10 µM	Cc1nc(C)c(C(=O)N2CCC[C@H](c3nc(-c4ccc(F)cc4)no3)C2)s1 [Example 18, (2,4-Dimethyl-thiazol-5-yl)-{(S)-3-[3-(4-fluoro-phenyl)-[1,2,4]oxadiazol-5-yl]-piperidin-1-yl}-methanone]
> 10 µM	O=C(c1ccccc1NCc1ccccc1)N1CCC[C@H](c2nc(-c3ccc(F)cc3)no2)C1 [Example 55, (2-Benzylamino-phenyl)-{(S)-3-[3-(4-fluoro-phenyl)-[1,2,4]oxadiazol-5-yl]-piperidin-1-yl}-methanone]
1 to 10 µM	Cc1ccoc1C(=O)N1CCC[C@H](c2nc(-c3ccc(F)cc3)no2)C1 [Example 30, (S)-{3-[3-(4-Fluoro-phenyl)-[1,2,4]oxadiazol-5-yl]-piperidin-1-yl}-(3-methyl-furan-2-yl)-methanone]

EC50	Structure (SMILES)
< 1 µM	O=C(c1ccc(F)c(F)c1)N1CCC[C@H](c2nc(-c3ccc(F)cc3F)no2)C1 [Example 68, (3,4-Difluoro-phenyl)-{(S)-3-[3-(2,4-difluoro-phenyl)-[1,2,4]oxadiazol-5-yl]-piperidin-1-yl}-methanone]
< 1 µM	O=C(c1ccc(F)nc1)N1CCC[C@H](c2nc(-c3ccccc3F)no2)C1 [Example 64, {(S)-3-[3-(2-Fluoro-phenyl)-[1,2,4]oxadiazol-5-yl]-piperidin-1-yl}-(6-fluoro-pyridin-3-yl)-methanone]
< 1 µM	O=C(c1ccc(F)cc1F)N1CCC[C@H](c2nc(-c3ccccc3F)no2)C1 [Example 60, (2,4-Difluoro-phenyl)-{(S)-3-[3-(2-fluoro-phenyl)-[1,2,4]oxadiazol-5-yl]-piperidin-1-yl}-methanone]
> 10 µM	O=C(c1ccc(F)cc1)N1CCC[C@H](c2nc(-c3cnccn3)no2)C1 [Example 57, (4-Fluoro-phenyl)-[(S)-3-(3-pyrazin-2-yl-[1,2,4]oxadiazol-5-yl)-piperidin-1-yl]-methanone]
1 to 10 µM	Cn1cccc1-c1noc([C@H]2CCCN(C(=O)c3ccc(F)cc3)C2)n1 [Example 39, (4-Fluoro-phenyl)-{(S)-3-[3-(1-methyl-1H-pyrrol-2-yl)-[1,2,4]oxadiazol-5-yl]-piperidin-1-yl}-methanone]
> 10 µM	Cc1ccccc1-c1noc([C@H]2CCCN(C(=O)c3ccc(F)cc3)C2)n1 [Example 48, (4-Fluoro-phenyl)-[(S)-3-(3-o-tolyl-[1,2,4]oxadiazol-5-yl)-piperidin-1-yl]-methanone]
1 to 10 µM	Cc1cc(F)ccc1C(=O)N1CCC[C@H](c2nc(-c3ccc(F)cc3F)no2)C1 [Example 67, {(S)-3-[3-(2,4-Difluoro-phenyl)-[1,2,4]oxadiazol-5-yl]-piperidin-1-yl}-(4-fluoro-2-methyl-phenyl)-methanone]
1 to 10 µM	O=C(c1ccc(F)cc1F)N1CCC[C@H](c2nc(-c3ccccn3)no2)C1 [Example 70, (2,4-Difluoro-phenyl)-[(S)-3-(3-pyridin-2-yl-[1,2,4]oxadiazol-5-yl)-piperidin-1-yl]-methanone]
1 to 10 µM	CCc1oncc1C(=O)N1CCC[C@H](c2nc(-c3ccc(F)cc3)no2)C1 [Example 46, (5-Ethyl-isoxazol-4-yl)-{(S)-3-[3-(4-fluoro-phenyl)-[1,2,4]oxadiazol-5-yl]-piperidin-1-yl}-methanone]
1 to 10 µM	Cc1cc(F)ccc1C(=O)N1CCC[C@H](c2nc(-c3ccncc3)no2)C1 [Example 53, (4-Fluoro-2-methyl-phenyl)-[(S)-3-(3-pyridin-4-yl-[1,2,4]oxadiazol-5-yl)-piperidin-1-yl]-methanone]
> 10 µM	Cc1ncc(-c2noc([C@H]3CCCN(C(=O)c4ccc(F)nc4)C3)n2)s1 [Example 73, (6-Fluoro-pyridin-3-yl)-{(S)-3-[3-(2-methyl-thiazol-5-yl)-[1,2,4]oxadiazol-5-yl]-piperidin-1-yl}-methanone]
1 to 10 µM	O=C(c1ccc(F)cc1F)N1CCC[C@H](c2nc(-c3ccc(F)cc3F)no2)C1 [Example 69, (2,4-Difluoro-phenyl)-{(S)-3-[3-(2,4-difluoro-phenyl)-[1,2,4]oxadiazol-5-yl]-piperidin-1-yl}-methanone]
1 to 10 µM	O=C(c1ccsc1Br)N1CCC[C@H](c2nc(-c3ccc(F)cc3)no2)C1 [Example 28, (S)-(2-Bromo-thiophen-3-yl)-{3-[3-(4-fluoro-phenyl)-[1,2,4]oxadiazol-5-yl]-piperidin-1-yl}-methanone]
1 to 10 µM	CNc1ccccc1C(=O)N1CCC[C@H](c2nc(-c3ccc(F)cc3)no2)C1 [Example 49, {(S)-3-[3-(4-Fluoro-phenyl)-[1,2,4]oxadiazol-5-yl]-piperidin-1-yl}-(2-methylamino-phenyl)-methanone]
1 to 10 µM	Cc1ccccc1C(=O)N1CCC[C@H](c2nc(-c3ccc(F)cc3)no2)C1 [Example 19, {(S)-3-[3-(4-Fluoro-phenyl)-[1,2,4]oxadiazol-5-yl]-piperidin-1-yl}-o-tolyl-methanone]

From US20090197897A1, “Novel Oxadiazole Derivatives and Their Use as Positive Allosteric Modulators of Metabotropic Glutamate Receptors” (Addex Pharma SA, priority 2005, published 2009)
